From ChEMBL document CHEMBL1201862, “PubChem BioAssay data set” (2004)
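Results reflect a 48-hour exposure of cells in 96-well plates to compound at five concentrations. The concentration for 50% growth inhibition is given as GI50.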 Active and inactive are the calls of the source. No stated cut-off is given here; in the data, active = GI50 up to about 1.1 µM and inactive = higher.

Experiments:
Assay in all cases: NCI tumour cell line growth inhibition, 48 h
K562 = test system: K562
M19-MEL = test system: M19-MEL
SR = test system: SR
HT-29 = test system: HT-29
HL-60 = test system: HL-60
OVCAR-3 = test system: OVCAR-3
LOX IMVI = test system: LOX IMVI
UO-31 = test system: UO-31
MOLT-4 = test system: MOLT-4

Measured: GI50

CC(/C=C/c1ncccc1OCCCCCC(=O)O)=N\NC1=NCCN1
inactive: K562 > 100 µM | M19-MEL > 100 µM | SR > 100 µM | HT-29 > 100 µM | HL-60 > 100 µM | OVCAR-3 > 100 µM | LOX IMVI > 100 µM | UO-31 > 100 µM | MOLT-4 > 100 µM
